Read-outs that look alike come from different tables or passages of the source.
Key:
[1] = in vitro; details: dog
[2] = Cytotoxicity on uninfected Huh-7 cells (WST-8, crystal violet); details: human, uninfected Huh-7 cells
Description: The toxicity of the compounds at the same concentration was tested on the same cells in parallel.
Cytotoxic effects were evaluated on uninfected cells using the WST-8 assay (Orangu, Cell Guidance Systems, Cambridge, UK) and the crystal violet assay [23]. […] Huh-7, MDCK, and Vero TMPRSS cells were seeded at 1 × 10^4, 1.5 × 10^4, and 1.2 × 10^4 cells/well, respectively, and incubated for 48 h (Huh-7 and MDCK) or 24 h (VERO TMPRSS), following conditions matching those of the corresponding antiviral assays in terms of timing and culture medium. At the end of incubation, the medium was replaced with a 10% WST-8 solution in DMEM and incubated for 1 h at 37 °C. Optical density (OD) was then measured at 450 nm using a Varioskan LUX plate reader (ThermoFisher Scientific, Milano, Italy). Subsequently, cells were fixed with 4% buffered formalin solution (Merck®, Darmstadt, Germany), stained with 1% crystal violet (Merck®, Darmstadt, Germany), and the dye was solubilized in 30% acetic acid for 30 min under shaking. OD was then measured at 595 nm as an additional readout of cell viability. The percentage of viability at each concentration was calculated using the formula:% viability = 100 × (ODcompound/ODuntreated control) where ODcompound and ODuntreated are the OD of the cells treated with compound or DMSO, respectively.
The CC50 value was determined by nonlinear regression analysis on GraphPad Prism 7 (San Diego, CA, USA).

[3] = test system: SARS-CoV-2 VR PV10734 (strain Milano); assay: microbe, parasite or virus in culture; assay type: cell-based; details: for EC50: Severe acute respiratory syndrome coronavirus 2; for selectivity index (SI): CC50/EC50
[4] = test system: K-562 (leukemia cell line); assay: NCI-60 single-dose assay; assay type: cell-based; details: Homo sapiens, K562, read-out: growth inhibition (GI%) and cytotoxicity (negative values)
Description: (§1) We first evaluated the cytotoxic activity of tricyclic-pyrrole carboxamides 1–20 using the NCI-60 cell line panel, representing nine different human cancers: leukemia, melanoma, and cancers of the lung, colon, central nervous system (CNS), ovary, kidney, prostate, and breast (the one-dose graph for compounds 1–20 is reported in Supplementary Materials, Figures S43–S62). Compounds 1, 5, 10, 11, 17, and 20 satisfied pre-determined threshold inhibition criteria in a minimum number of cell lines; therefore, they were also tested in the full five-dose assay (Figures S63–S68 in the Supplementary Materials).

[5] = test system: COLO 205 (colon cancer cell line); assay: NCI-60 single-dose assay; assay type: cell-based, human; details: for inhibition at 10 µM: Homo sapiens, COLO 205, read-out: growth inhibition (GI%) and cytotoxicity (negative values); for growth inhibition (GI%) and cytotoxicity (negative values): human
How it was run: (§2)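 Human cancer lines from nine tumour types in the NCI-60 panel were exposed to one compound dose, and cytotoxic activity was recorded for each line.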

[6] = test system: HCT-116 (colon cancer cell line); assay: NCI-60 single-dose assay; assay type: cell-based, human; details: Homo sapiens, HCT-116, read-out: growth inhibition (GI%) and cytotoxicity (negative values)
How it was run: as §2

[7] = test system: BT-549 (breast cancer cell line); assay: NCI-60 single-dose assay; assay type: cell-based, human; details: Homo sapiens, BT-549, read-out: growth inhibition (GI%) and cytotoxicity (negative values)
How it was run: as §2

[8] = test system: KM12 (colon cancer cell line); assay: NCI-60 single-dose assay; assay type: cell-based, human; details: Homo sapiens, KM12, read-out: growth inhibition (GI%) and cytotoxicity (negative values)
How it was run: as §2

[9] = test system: SR (leukemia cell line); assay: NCI-60 single-dose assay; assay type: cell-based, human; details: for inhibition at 10 µM: Homo sapiens, read-out: growth inhibition (GI%) and cytotoxicity (negative values)
How it was run: as §2

[10] = test system: LOX IMVI (melanoma cell line); assay: NCI-60 single-dose assay; assay type: cell-based, human; details: Homo sapiens, LOX IMVI, read-out: growth inhibition (GI%) and cytotoxicity (negative values)
How it was run: as §2

[11] = test system: HL-60(TB) (leukemia cell line); assay: NCI-60 single-dose assay; assay type: cell-based, human; details: for inhibition at 10 µM: Homo sapiens, HL-60, read-out: growth inhibition (GI%) and cytotoxicity (negative values); for growth inhibition (GI%) and cytotoxicity (negative values): human
[12] = test system: SW-620 (colon cancer cell line); assay: NCI-60 single-dose assay; assay type: cell-based, human; details: Homo sapiens, SW-620, read-out: growth inhibition (GI%) and cytotoxicity (negative values)
How it was run: as §2

[13] = test system: CCRF-CEM (leukemia cell line); assay: NCI-60 single-dose assay; assay type: cell-based, human; details: Homo sapiens, read-out: growth inhibition (GI%) and cytotoxicity (negative values)
How it was run: as §2

[14] = test system: HCC-2998 (colon cancer cell line); assay: NCI-60 single-dose assay; assay type: cell-based, human; details: for growth inhibition (GI%) and cytotoxicity (negative values): human; for inhibition at 10 µM: Homo sapiens, HCC 2998, read-out: growth inhibition (GI%) and cytotoxicity (negative values)
How it was run: as §2

[15] = test system: MDA-MB-468 (breast cancer cell line); assay: NCI-60 single-dose assay; assay type: cell-based, human; details: for inhibition at 10 µM: Homo sapiens, MDA-MB-468, read-out: growth inhibition (GI%) and cytotoxicity (negative values)
How it was run: as §2

[16] = test system: UACC-62 (melanoma cell line); assay: NCI-60 single-dose assay; assay type: cell-based, human; details: Homo sapiens, UACC-62, read-out: growth inhibition (GI%) and cytotoxicity (negative values)
How it was run: as §2

[17] = test system: MDA-MB-435 (melanoma cell line); assay: NCI-60 single-dose assay; assay type: cell-based, human; details: Homo sapiens, MDA-MB-435, read-out: growth inhibition (GI%) and cytotoxicity (negative values)
How it was run: as §2

[18] = test system: HCT-15 (colon cancer cell line); assay: NCI-60 single-dose assay; assay type: cell-based, human; details: Homo sapiens, HCT-15, read-out: growth inhibition (GI%) and cytotoxicity (negative values)
How it was run: as §2

[19] = test system: IAV strain A/PR/8/34 (H1N1); details: preliminary screening
[20] = test system: IAV strain A/PR/8/34 (H1N1); assay: microbe, parasite or virus in culture; details: Influenza A virus, MDCK, read-out: IAV/MDCK EC50
[21] = test system: NCI-60 cell line panel; assay: NCI-60 single-dose assay, whole panel; assay type: cell-based, human; details: summary over the panel
Description: as §1

[22] = test system: T-47D (breast cancer cell line); assay: NCI-60 single-dose assay; assay type: cell-based, human; details: Homo sapiens, T47D, read-out: growth inhibition (GI%) and cytotoxicity (negative values)
How it was run: as §2

[23] = preliminary screening (50, 5, 0.5 μM), Vero TMPRSS, read-out: SARS‐CoV‐2/Vero TMPRSS EC50
[24] = SARS-CoV-2, VERO TMPRSS cells, 24 h, full dose-response, read-out: EC50

| SMILES | CC50 [1] [µM] | CC50 at 48 h [2] [µM] | EC50 [3, 23] [µM] | inhibition at 10 µM [4] [%] | inhibition at 10 µM [5] [%] | inhibition at 10 µM [6] [%] | inhibition at 10 µM [7] [%] | inhibition at 10 µM [8] [%] | inhibition at 10 µM [9] [%] | inhibition at 10 µM [10] [%] | inhibition at 10 µM [11] [%] | inhibition at 10 µM [12] [%] | inhibition at 10 µM [13] [%] | inhibition at 10 µM [15] [%] | inhibition at 10 µM [16] [%] | inhibition at 10 µM [17] [%] | inhibition at 10 µM [18] [%] | IAV/MDCK SI [19] | EC50 [20] [µM] | inhibition at 10 µM [14] [%] | other results |
| --- | --- | --- | --- | --- | --- | --- | --- | --- | --- | --- | --- | --- | --- | --- | --- | --- | --- | --- | --- | --- | --- |
| COc1ccccc1N1CCN(CCNC(=O)c2c(Cl)[nH]c3c2CCCc2ccccc2-3)CC1 [Compound 15] | 8.29 | 9.43 | 40.6 | 92.7 | < 60 | 65.2 | 66.5 | < 60 | 95.5 | 60.6 | 86.6 | 60.1 | < 60 | 94.8 | < 60 | < 60 | 66.4 | 0.47 | 17.7 | – | growth inhibition (GI%) and cytotoxicity (negative values) [14]: −18.77% |
| O=C(NCCN1CCN(c2ccc(Cl)cc2)CC1)c1c(Cl)[nH]c2c1CCCc1ccccc1-2 [Compound 13] | – | 57.9 | > 0.5 | 70.9 | < 60 | < 60 | < 60 | < 60 | 70.7 | < 60 | 69.6 | < 60 | < 60 | 95.3 | < 60 | < 60 | < 60 | 5.45 | 41.3 | < 60 | selectivity index (SI) ([3]; SARS-CoV-2, VERO TMPRSS cells): 150.00; EC50 [3, 24]: 0.66 µM |
| CCOc1ccccc1N1CCN(CCNC(=O)c2c(Cl)[nH]c3c2CCCc2ccccc2-3)CC1 [Compound 17] | 8.13 | 16.4 | – | 100 | – | 88.9 | 80.7 | < 60 | – | 74.3 | – | < 60 | 61.6 | – | < 60 | 69.3 | 81 | 0.23 | 34.9 | – | growth inhibition (GI%) reached against cancer cell lines of the NCI-60 panel [21]: > 90%; growth inhibition (GI%) and cytotoxicity (negative values) [5]: −47.24%; inhibition at 10 µM [22]: 77.6%; growth inhibition (GI%) and cytotoxicity (negative values) ([9]; human): −5.19%; growth inhibition (GI%) and cytotoxicity (negative values) [11]: −8.21%; growth inhibition (GI%) and cytotoxicity (negative values) [14]: −35.63%; growth inhibition (GI%) and cytotoxicity (negative values) ([15]; human): −3.78% |
| O=C(NCCN1CCN(c2ccccc2Cl)CC1)c1c(Cl)[nH]c2c1CCCc1ccccc1-2 [Compound 14] | 15.6 | 30.2 | – | 70.3 | < 60 | 66.5 | < 60 | < 60 | < 60 | < 60 | 71.7 | < 60 | < 60 | 82.4 | < 60 | < 60 | < 60 | – | – | < 60 | – |
| COc1ccccc1N1CCN(CCNC(=O)c2[nH]c3c(c2Cl)CCCc2ccccc2-3)CC1 [Compound 5] | 11 | 24.3 | 34.9 | 95.8 | – | 94.6 | – | 67.7 | 90.1 | 82.8 | – | 67.4 | 71.6 | – | < 60 | 61.8 | 92.5 | – | – | < 60 | growth inhibition (GI%) reached against cancer cell lines of the NCI-60 panel [21]: > 90%; growth inhibition (GI%) and cytotoxicity (negative values) [5]: −48.74%; growth inhibition (GI%) and cytotoxicity (negative values) [11]: −8.91% |
| N#Cc1ccccc1N1CCN(CCNC(=O)c2c(Cl)[nH]c3c2CCCc2ccccc2-3)CC1 [Compound 18, 2-Chloro-N-(2-(4-(2-cyanophenyl)piperazin-1-yl)ethyl)-1,4,5,6-tetrahydrobenzo[6,7]cyclohepta[1,2-b]pyrrole-3-carboxamide] | 13.9 | 15.5 | – | 75.3 | < 60 | 70.1 | 78.3 | < 60 | 74.2 | < 60 | 74.3 | < 60 | < 60 | 98.7 | < 60 | 64.5 | 61.3 | 0.28 | 49.4 | < 60 | growth inhibition (GI%) reached against cancer cell lines of the NCI-60 panel [21]: > 90%; inhibition at 10 µM [22]: 71.8% |
| O=C(NCCN1CCN(c2ccccc2)CC1)c1c(Cl)[nH]c2c1CCCc1ccccc1-2 [Compound 12, 2-Chloro-N-(2-(4-phenylpiperazin-1-yl)ethyl)-1,4,5,6-tetrahydrobenzo[6,7]cyclohepta[1,2-b]pyrrole-3-carboxamide] | 32.1 | 34.2 | 2.26 | 70.9 | < 60 | 65.8 | – | < 60 | 78.7 | < 60 | 67.2 | < 60 | < 60 | – | < 60 | < 60 | < 60 | 9.18 | 3.49 | < 60 | selectivity index (SI) ([3]; SARS-CoV-2, VERO TMPRSS cells): 63.63; EC50 [3, 24]: 1.17 µM |
